This is an account of results in ChEMBL document CHEMBL1139770, “Non-nucleoside inhibitors of the measles virus RNA-dependent RNA polymerase complex activity: Synthesis and in vitro evaluation” (Bioorg Med Chem Lett, 2007).

Structures are written as SMILES. pEC50: −log10 of the molar value.

A short description of data set [1]: Cytotoxicity against Vero cells by MTT assay. Conditions: chlorocebus sabaeus. The format is cell-based. In general terms: Formazan colour is commonly taken as a measure of viable cells.
Data set [2] concerns Measles morbillivirus. As to the kind of experiment: Antiviral activity against Measles virus Alaska assessed as inhibition of viral-induced cytopathicity. It counts as functional, organism-based. For orientation: Damage to the host cells serves as the signal in cytopathic effect assays.
Data set [3] deals with Measles morbillivirus. As to the kind of experiment: Antiviral activity against Measles virus Alaska assessed as virus titer reduction. The format is functional.
The nature of data set [4]: Cytotoxicity against Vero cells by Trypan blue exclusion assay. The format is cell-based. Conditions: chlorocebus sabaeus.
The nature of data set [5]: Ratio of CC50 for Vero cells to IC50 for Measles virus Alaska. It counts as functional.

Regarding `Cn1nc(C(F)(F)F)cc1C(=O)Nc1ccc(S(=O)(=O)N2CCC[C@H]2C(=O)OCc2ccccc2)cc1`, the 50% cytotoxic concentration (CC50) in data set [1] was determined as 100 µM. The pEC50 in the data set on Measles morbillivirus [2] was 4.85. For `Nc1ccc(C(=O)Nc2ccc(S(=O)(=O)N3CCCC3)cc2)c(Cl)c1`, in that order: > 300 µM and < 4.12. On to `Cn1nc(C(F)(F)F)cc1C(O)Cc1ccc(S(=O)(=O)N2CCCC2)cc1` (stereo unspecified), for which the half-maximal cytotoxic concentration (CC50) in data set [1] is > 300 µM. Moreover, the pEC50 in the data set on Measles morbillivirus [2] was 4.39. For `O=C(Nc1ccc(S(=O)(=O)N2CCCC2)cc1)c1ccco1`, the 50% cytotoxic concentration (CC50) in data set [1] is > 300 µM. Also, in the data set on Measles morbillivirus [2], the negative-log EC50 (pEC50) is < 4.12. In the same order, the values of `O=C(Nc1ccc(S(=O)(=O)N2CCCC2)cc1)c1cccc(C(F)(F)F)c1` are > 300 µM and < 4.12. With `Cn1nc(C(F)(F)F)cc1C(=O)Nc1ccc(S(=O)(=O)N2CCCCC2)cc1`, the CC50 is > 300 µM in data set [1] and 199 µM in data set [4]. Besides, the negative logarithm of the EC50 (pEC50) in the data set with Measles morbillivirus [2] is > 5.64. Besides, the Activity with Measles morbillivirus [3] is 0.012 µM. For the same compound, the “Ratio CC50/IC50” value in data set [5] was found to be 16500. Take `Cc1cc(C(=O)Nc2ccc(S(=O)(=O)N3CCCC3)cc2)n(C)n1`: the CC50 in data set [1] is > 300 µM. Further, in the data set with Measles morbillivirus [2], the pEC50 is < 4.12. Take `Cn1nc(C(F)(F)F)cc1C(=O)Nc1ccc(S(=O)(=O)N2CCCCC2C(=O)O)cc1` (stereo unspecified): the half-maximal cytotoxic concentration (CC50) in data set [1] was > 300 µM. Moreover, in the data set on Measles morbillivirus [2], the pEC50 was < 4.12. For `O=C(Nc1ccc(S(=O)(=O)N2CCCC2)cc1)c1ccc(C(F)(F)F)cc1`, in that order: > 300 µM and 4.32. `Cn1nc(C(F)(F)F)cc1C(=O)Nc1ccc(S(=O)(=O)N2CCCC2)cc1N`: in data set [1], the CC50 is > 300 µM. In addition, the negative logarithm of the EC50 (pEC50) in the data set with Measles morbillivirus [2] is ≤ 4.12.

The compound `O=C(Nc1ccc(S(=O)(=O)N2CCCC2)cc1)c1cc(C(F)(F)F)ccc1F` came in with a CC50 in data set [1] of 76 µM. The pEC50 with Measles morbillivirus [2] is ≤ 4.12. In the same order, the values of `O=C(Nc1ccc(S(=O)(=O)N2CCCC2)cc1)c1nc2ccccc2s1` are > 300 µM and < 4.12.

Turning to `Cn1nc(C(F)(F)F)cc1C(=O)Nc1ccc(S(=O)(=O)N2CCC[C@H]2C(=O)O)cc1`, the CC50 in data set [1] is > 300 µM. Also, the pEC50 in the data set with Measles morbillivirus [2] is 4.64. Consider `O=C(Nc1ccc(S(=O)(=O)N2CCCC2)cc1)c1ccc(Br)cc1`, for which the 50% cytotoxic concentration (CC50) in data set [1] was found to be 59 µM.

`Cc1nc(C(F)(F)F)ccc1C(=O)Nc1ccc(S(=O)(=O)N2CCCC2)cc1`: in data set [1], the CC50 is > 300 µM. The pEC50 in the data set on Measles morbillivirus [2] was < 4.12. With `O=C(Nc1ccc(S(=O)(=O)N2CCCC2)cc1)c1nccn1-c1ccccc1C(F)(F)F`, the 50% cytotoxic concentration (CC50) in data set [1] is > 300 µM. The pEC50 with Measles morbillivirus [2] was 4.19. For `Cn1nc(C(F)(F)F)cc1COc1ccc(S(=O)(=O)N2CCCC2)cc1`, in that order: > 300 µM and < 4.12. With `Cn1nc(C(C)(C)C)cc1C(=O)Nc1ccc(S(=O)(=O)N2CCCC2)cc1`, the half-maximal cytotoxic concentration (CC50) in data set [1] came to 140 µM. Besides, the negative-log EC50 (pEC50) in the data set with Measles morbillivirus [2] is 4.60. For `Cn1nc(C(F)(F)F)cc1C(=O)Nc1ccc(S(=O)(=O)N2CCCC2)cc1O`, in data set [1], it took 288 µM to reach half-maximal cytotoxicity (CC50). Moreover, the negative logarithm of the EC50 (pEC50) with Measles morbillivirus [2] was < 4.12. The compound `Cn1nc(C(F)(F)F)cc1C(=O)Nc1ccc(S(=O)(=O)N2CCCC2)cc1OC(=O)c1cc(C(F)(F)F)nn1C` yielded a CC50 in data set [1] of 14 µM.

Consider `O=C(Nc1ccc(S(=O)(=O)N2CCCC2)cc1)c1ccc([N+](=O)[O-])cc1Cl`, for which the cytotoxic concentration (CC50) in data set [1] is > 300 µM. The pEC50 in the data set on Measles morbillivirus [2] was < 4.12. For `O=C(Nc1ccc(S(=O)(=O)N2CCCC2)cc1)c1cc(C(F)(F)F)nn1Cc1ccccc1`, in that order: 37 µM and < 4.12. In the same order, the values of `Cn1nc(C(F)(F)F)cc1C(=O)Nc1ccc(S(=O)(=O)N2CCOCC2)cc1` are > 300 µM and 4.37. In the same order, the values of `O=C(Nc1ccc(S(=O)(=O)N2CCCC2)cc1)c1ccc(F)cc1` are > 300 µM and < 4.12.

In data set [1], `Cn1nc(C(F)(F)F)cc1C(=O)Nc1ccc(S(=O)(=O)n2ccc3ccccc32)cc1` had a CC50 of 13 µM. In the case of `O=C(Nc1ccc(S(=O)(=O)N2CCCC2)cc1)c1cccs1`, the half-maximal cytotoxic concentration (CC50) in data set [1] was > 300 µM. In addition, in the data set with Measles morbillivirus [2], the negative-log EC50 (pEC50) was < 4.12. In the same order, the values of `Cn1nc(C(F)(F)F)cc1CNc1ccc(S(=O)(=O)N2CCCC2)cc1` are > 300 µM and < 4.12. With `COc1ccc(Br)c(C(=O)Nc2ccc(S(=O)(=O)N3CCCC3)cc2)c1`, the CC50 in data set [1] is > 300 µM. For the same compound, the negative-log EC50 (pEC50) with Measles morbillivirus [2] was < 4.12. For the compound `Cn1nc(C(F)(F)F)cc1C(=O)Nc1ccc(S(=O)(=O)N2CCCC2)cc1NC(=O)c1cc(C(F)(F)F)nn1C`, the CC50 in data set [1] came to 13 µM. On to `O=C(Nc1ccc(S(=O)(=O)N2CCCC2)cc1)c1ccccc1C(F)(F)F`, for which, in data set [1], the CC50 was > 300 µM. For the same compound, the negative logarithm of the EC50 (pEC50) with Measles morbillivirus [2] is < 4.12. On to `O=C(Nc1ccc(S(=O)(=O)N2CCCC2)cc1)c1ccc(C(F)(F)F)cc1[N+](=O)[O-]`, for which the 50% cytotoxic concentration (CC50) in data set [1] is > 300 µM. Further, the pEC50 with Measles morbillivirus [2] is < 4.12. In the same order, the values of `Cn1nc(C(F)(F)F)cc1C(=O)Nc1ccc(S(=O)(=O)N2CCNCC2)cc1` are 126 µM and 4.55. In the same order, the values of `Cn1nc(C(F)(F)F)cc1C(=O)Cc1ccc(S(=O)(=O)N2CCCC2)cc1` are > 300 µM and 4.81.

`O=C(Nc1ccc(S(=O)(=O)N2CCCC2)cc1)c1ccc(CCl)cc1` registered a CC50 in data set [1] of 11 µM.

In general, CC50 refers to the concentration at which the toxic effect on the cells reaches its halfway point. Read a low CC50 as greater toxicity to the cells. A word on the pEC50: it is −log10 of the EC50, conventionally taken in molar units.
